Reference: patent publication US20230035892A1, “METHODS AND COMPOSITIONS FOR TREATING CANCER” (Flagship Pioneering Innovations V, Inc., priority 2019, published 2023)

System: pancreatic cancer cell lines
Experiment: Long-term colony formation assay (10-14 days)
Assay type: cell-based
Settings: colony formation 10-14 days
From the text: Different concentrations of the compound of Formula III-26 were then used to evaluate its effect on pancreatic cancer cell line proliferation in a long-term colony formation assay (10-14 days).

Q: What does the source list for `Cn1c(CNc2cccc(C(=O)NCc3ccccc3C(F)(F)F)c2)nnc1-c1ccncc1` [Compound of Formula III-26]?
A: Mean intensity (BXPC3, 0.1 μM): 396.24; Normalized to DMSO (BXPC3, 0.1 μM): 0.99; Mean intensity (BXPC3, 0.3 μM): 445.015; Normalized to DMSO (BXPC3, 0.3 μM): 1.11; Mean intensity (BXPC3, 1 μM): 418.98; Normalized to DMSO (BXPC3, 1 μM): 1.04; Mean intensity (BXPC3, 3 μM): 189.24; Normalized to DMSO (BXPC3, 3 μM): 0.47; Mean intensity (BXPC3, 10 μM): 82.2; Normalized to DMSO (BXPC3, 10 μM): 0.20; Mean intensity (BXPC3, 30 μM): 76.19; Normalized to DMSO (BXPC3, 30 μM): 0.19; Mean intensity (Miapaca, 0.1 μM): 447.5; Normalized to DMSO (Miapaca, 0.1 μM): 1.09; Mean intensity (Miapaca, 0.3 μM): 461.465; Normalized to DMSO (Miapaca, 0.3 μM): 1.13; Mean intensity (Miapaca, 1 μM): 398.675; Normalized to DMSO (Miapaca, 1 μM): 0.97; Mean intensity (Miapaca, 3 μM): 386.35; Normalized to DMSO (Miapaca, 3 μM): 0.94; Mean intensity (Miapaca, 10 μM): 80.16; Normalized to DMSO (Miapaca, 10 μM): 0.20; Mean intensity (Miapaca, 30 μM): 75.66; Normalized to DMSO (Miapaca, 30 μM): 0.18; Mean intensity (PAXF1657, 0.1 μM): 617.13; Normalized to DMSO (PAXF1657, 0.1 μM): 0.97; Mean intensity (PAXF1657, 0.3 μM): 660.9; Normalized to DMSO (PAXF1657, 0.3 μM): 1.04; Mean intensity (PAXF1657, 1 μM): 574.375; Normalized to DMSO (PAXF1657, 1 μM): 0.90; Mean intensity (PAXF1657, 3 μM): 410.77; Normalized to DMSO (PAXF1657, 3 μM): 0.64; Mean intensity (PAXF1657, 10 μM): 326.68; Normalized to DMSO (PAXF1657, 10 μM): 0.51; Mean intensity (PAXF1657, 30 μM): 271.275; Normalized to DMSO (PAXF1657, 30 μM): 0.43; Mean intensity (PAXF1997, 0.1 μM): 461.65; Normalized to DMSO (PAXF1997, 0.1 μM): 1.07; Mean intensity (PAXF1997, 0.3 μM): 500.34; Normalized to DMSO (PAXF1997, 0.3 μM): 1.16; Mean intensity (PAXF1997, 1 μM): 455.7; Normalized to DMSO (PAXF1997, 1 μM): 1.06; Mean intensity (PAXF1997, 3 μM): 379.285; Normalized to DMSO (PAXF1997, 3 μM): 0.88; Mean intensity (PAXF1997, 10 μM): 296.635; Normalized to DMSO (PAXF1997, 10 μM): 0.69; Mean intensity (PAXF1997, 30 μM): 288.38; Normalized to DMSO (PAXF1997, 30 μM): 0.67; Mean intensity (Panc1, 0.1 μM): 477.265; Normalized to DMSO (Panc1, 0.1 μM): 1.16; Mean intensity (Panc1, 0.3 μM): 478.195; Normalized to DMSO (Panc1, 0.3 μM): 1.17; Mean intensity (Panc1, 1 μM): 509.365; Normalized to DMSO (Panc1, 1 μM): 1.24; Mean intensity (Panc1, 3 μM): 504.735; Normalized to DMSO (Panc1, 3 μM): 1.23; Mean intensity (Panc1, 10 μM): 254.47; Normalized to DMSO (Panc1, 10 μM): 0.62; Mean intensity (Panc1, 30 μM): 181.7; Normalized to DMSO (Panc1, 30 μM): 0.44
